US20020148006A1, “Transgenic plants with modified sterol compositions” (Asgrow Seed Company, L.L.C., priority 1996, published 2002)
Read-outs that look alike come from different tables or passages of the source.

Key:
yeast SMT enzyme = molecular target: T1, yeast SMT enzyme (Saccharomyces cerevisiae, UniProt P25087); experiment: Substrate preference / binding of yeast SMT (ERG6 product); format: biochemical
T1 construct: made in house; host or cells: E. coli, pET23a(+)
T1 sequence (P25087 1-383): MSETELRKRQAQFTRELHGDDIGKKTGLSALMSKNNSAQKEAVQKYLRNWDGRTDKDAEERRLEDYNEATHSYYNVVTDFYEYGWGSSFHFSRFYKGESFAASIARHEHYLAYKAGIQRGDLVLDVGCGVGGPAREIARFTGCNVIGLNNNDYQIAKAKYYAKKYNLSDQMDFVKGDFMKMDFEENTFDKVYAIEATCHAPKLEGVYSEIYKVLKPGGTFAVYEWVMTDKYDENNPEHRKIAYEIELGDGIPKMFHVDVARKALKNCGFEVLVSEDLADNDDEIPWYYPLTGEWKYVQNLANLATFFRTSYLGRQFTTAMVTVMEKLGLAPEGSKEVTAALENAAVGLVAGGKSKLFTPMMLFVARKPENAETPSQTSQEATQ
Text: The cloned ERG6 gene was expressed in E. coli (Venkatramesh et al., 1996).

[1] = test system: (S)-adenosyl-L-methionine: Δ^24-sterol methyl transferase (SMT); experiment: Effect of substrate and transition state analog inhibitors on soluble SMT enzyme from 4-day seedlings; format: biochemical, Zea mays (corn); conditions: for Ki: soluble SMT, 4-day seedlings, NA = no inhibition
[2] = test system: (S)-adenosyl-L-methionine: Δ^24-sterol methyl transferase (SMT); experiment: Sterol specificity (substrate methylation) of SMT enzyme from 4-day corn seedlings; format: biochemical, Zea mays (corn); conditions: for % Activity, relative to cycloartenol methylation: soluble SMT; for Enzyme Activity: soluble SMT from corn seedlings, BG = background
Procedure: The sterol specificity of the microsome-bound and soluble SMT enzyme from 4-day corn seedlings was determined in order to elucidate the enzymatic basis for the plant sterols identified in Example 1.

[3] = test system: 3-hydroxy-3-methylglutaryl-coenzyme A reductase (HMGR); experiment: Microsomal HMGR activity during seedling development; format: biochemical, corn; set-up: dose or concentration left out as unconfirmed
Arabidopsis SMT = molecular target: T2, Arabidopsis SMT (Arabidopsis thaliana, UniProt Q39227); experiment: Sterol transformation by recombinant Arabidopsis SMT expressed in E. coli; format: biochemical; conditions: recombinant fusion protein
T2 construct: The full-length ORF containing a Nde 1 site at the start; His-tag; made in house; host or cells: E. coli, pET23a(+)
T2 sequence (Q39227 1-361): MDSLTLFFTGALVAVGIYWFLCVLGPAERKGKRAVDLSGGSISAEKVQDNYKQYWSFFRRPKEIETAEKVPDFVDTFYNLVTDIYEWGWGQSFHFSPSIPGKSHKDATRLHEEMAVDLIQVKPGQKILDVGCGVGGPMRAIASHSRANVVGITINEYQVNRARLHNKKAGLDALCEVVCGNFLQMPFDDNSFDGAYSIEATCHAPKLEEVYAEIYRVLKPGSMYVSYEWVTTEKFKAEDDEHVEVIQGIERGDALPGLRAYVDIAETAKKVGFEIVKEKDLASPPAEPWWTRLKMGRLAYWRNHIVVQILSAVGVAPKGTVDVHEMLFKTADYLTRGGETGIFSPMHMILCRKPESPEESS
Text: The SMT gene from Arabidopsis was cloned and sequenced (FIG. 6; SEQ ID NO:3). This gene containing a His-tag was overexpressed in E. coli (Tong et al., 1997). Arabidopsis SMT was partially purified and characterized in stereochemical detail.
The Arabidopsis SMT gene was amplified by PCR from a cDNA library. The primers used were designed from the full-length cDNA sequence retrieved from the GeneBank (Accession number X89867). The amplified product was the full-length Arabidopsis SMT gene which was sub-cloned into a T/A cloning vector and sequenced. From the sequence data the ORF was identified. A Nde I site was created at the ATG start codon through PCR mediated site-directed mutagenesis. The full-length ORF containing a Nde 1 site at the start and a BamH I site at the stop was cloned into the pET23a(+) vector just as the ERG6 gene was in Example 4. […] In the case of cycloartenol only one product was formed, which is 24(28)-methylene cycloartanol, i.e., SMTI in FIG. 4. Since a single gene product was able to metabolize both sterol substrates it further confirms the enzymological data in Example 3.

[4] = test system: yeast sterol auxotroph, GL-7; experiment: Growth support of yeast sterol auxotroph GL-7 cultured with test sterols; format: cell-based; conditions: sterol added to culture medium
Procedure: The phytosterols identified in Example 1 were tested individually for their ability to support growth. In the absence of a plant sterol mutant for such studies the yeast sterol auxotroph, GL-7, was cultured in the presence of sterols identified according to Example 1, above (Li, 1996). This yeast mutant is used as a model system because it can take up sterols from the culture medium and incorporate the test sterol into the membrane lipid bilayer and proliferate. The amount of proliferation of the cells was measured in the presence and absence of hormonal levels of ergosterol, the major yeast sterol.

Heliothis zea = experiment: Sterol utilization and metabolism by Heliothis zea reared on artificial diet with sterol supplement; conditions: for Utilization by H. zea / support of larval growth and development (words): test sterol as sole added dietary sterol; for Sterol composition (as % total sterol): ts: insect tissues, RP-HPLC and GC-MS
Procedure: Heliothis zea (corn earworm) was reared on an artificial diet treated with different sterol supplements to study the relation between sterol structure and utilization in insects. H. zea eggs were used to establish a disease-free stock colony.
The stock insects were reared using sterile procedures on a pinto bean-based diet. Moths were fed 10% sucrose. Cultures were maintained at 27±1° C., at 40±10% relative humidity on a 14:10 light-dark photoperiod and an artificial diet was used to rear the insects on different sterol supplements. The experimental diet contained agar, which is known to contain trace contamination of cholesterol, otherwise the experimental diet was sterol-free.
Sterols were solubilized in acetone. Aliquots of the solutions were added to the sterol-free diet in a mortar, the material mixed thoroughly with the diet, and the organic solvent allowed to evaporate. Sterols were supplied to the medium at 200 ppm (equivalent to 1 mg of sterol per experimental vessel containing one insect).
By day 20, H. zea larva are in the final stage of larval development (sixth instar), after which the insects may pupate. A single neonate larva was placed in an experimental culture vial and allowed to grow for 20 days. The fresh weight, length and instar stage of 20-day larva were recorded.
In some treatments, the larvae were allowed to grow for another 4 days to determine whether they could pupate properly and develop into moth forms.
These fatty alcohols may comigrate with sterols during some forms of chromatography and interfere with sterol quantitation, particularly of cholesterol. Therefore, in order to confirm the identity and amount of cholesterol in the insect an aliquot of the NSF was injected into a HPLC column and the fraction corresponding to cholesterol was examined by GC-MS.

SMT = experiment: Substrate preference of SMT in microsome preparations of P. wickerhamii; format: biochemical, Prototheca wickerhamii
Text: However, the preferred product is not 24(28)-methylene cycloartenol but cyclolaudenol (VII) which is a Δ^25(27)-24-alkyl sterol, a nonutilizable sterol.

[5] = read-out: Ki relative to the first methyl transfer
[6] = Table 11, sterol 200 ppm in diet
[7] = Table 11, sterol 200 ppm in diet, 20-day larvae, relative to growth on cholesterol normalized to 100%
[8] = substrates marked (C1), first methyl transfer
[9] = read-out: Ki relative to the second methyl transfer

## 26,27-Cyclopropylidene cycloartenol
Yeast SMT enzyme
  Substrate preference / binding to yeast SMT (words): failed to bind to the yeast SMT enzyme
[1]; [5]
  Ki: 25 µM
[1]; soluble corn SMT
  Effect on the second methyl transfer: not affecting the second methyl transfer
  Type of inhibition / kinetic pattern: potent competitive inhibitor

## C=C(CCC(C)C1CCC2(C)C3CCC4C(C)(C)C(O)CCC45CC35CCC12C)C(C)C (centres unmarked) [24(28)-Methylene cycloartanol]
[2]; (C2), second methyl transfer
  % Activity, relative to cycloartenol methylation: 0 (C2) %
[3]
  Effect on HMGR activity: neither sitosterol nor 24(28)-methylene cycloartanol at 100 mM affected HMGR activity
[1]; [5]
  Ki: 20 µM
[1]; soluble corn SMT
  Effect on the second methyl transfer: failed to inhibit the second methyl transfer

## C=C(CC[C@@H](C)[C@H]1CC[C@H]2C3=CCC4C(C)C(O)CC[C@]4(C)[C@H]3CC[C@]12C)C(C)C (some centres unmarked) [24(28)-Methylenelophenol]
[2]; second transmethylation
  Vmax: 1 pmol/min/mg protein
[2]; substrates marked (C2), second methyl transfer
  Enzyme Activity: 3,800 dpm/min
[2]; (C2), second methyl transfer
  % Activity, relative to cycloartenol methylation: 10 (C2) %
[2]; soluble enzyme
  Substrate quality for corn SMT: preferred sterol substrate for the second methylation reaction
[2]; sterol substrate of the second transmethylation, read-out: Km
  Km: 11 µM
Arabidopsis SMT
  Transformation by recombinant Arabidopsis SMT: active in transforming both cycloartenol and 24(28)-methylene lophenol to their respective alkyl products

## CC(C)C(C)CCC(C)C1CCC2C3CC=C4CC(O)CCC4(C)C3CCC12C (centres unmarked) [Campesterol, campesterol]
[1]; soluble corn SMT
  Effect on the first methyl transfer: failed to inhibit either the first or second methylation reaction
  Effect on the second methyl transfer: failed to inhibit either the first or second methylation reaction

## CC(C)CCC[C@@H](C)[C@H]1CC[C@H]2[C@@H]3CC=C4C[C@@H](O)CC[C@]4(C)[C@H]3CC[C@]12C [Cholesterol]
[4]
  Effect on growth of GL-7: without affecting the rate of growth of the cells
Heliothis zea; % of diet
  Dietary concentration that enhanced the rate of development of larvae: ≥ 0.015%
Heliothis zea; % of the experimental diet
  Minimal dietary concentration necessary for larvae to grow and pupate: 0.01%
Heliothis zea; [6]
  Instar reached by day 20: 6
Heliothis zea; [7]
  Growth response: 100%
Heliothis zea; Table 12, cholesterol / 24,25-dihydrolanosterol mixtures in diet
  Growth response: 100
Heliothis zea; Table 12, sterol mixtures
  Instar reached by day 20: 6
Heliothis zea; Table 12, sterol recovered from insect
  Sterol composition (as % total sterol): cholesterol: (100%)
Heliothis zea
  Utilization by H. zea / support of larval growth and development (words): supported larval growth to late-sixth instar

## CC(C)=CCC[C@@H](C)[C@H]1CC[C@@]2(C)[C@@H]3CC[C@H]4C(C)(C)[C@@H](O)CC[C@@]45C[C@@]35CC[C@]12C [Cycloartenol, cycloartenol]
[2]; first transmethylation
  Vmax: 4 pmol/min/mg protein
[2]; microsome-bound enzyme system
  Substrate quality for corn SMT: preferred sterol acceptor
[2]; [8]
  Enzyme Activity: 37,515 dpm/min
[2]; (C1), first methyl transfer
  % Activity, relative to cycloartenol methylation: 100 (C1) %
[2]; soluble enzyme
  Substrate quality for corn SMT: preferred substrate for the first methylation reaction
Heliothis zea; [6]
  Instar reached by day 20: 3
Heliothis zea; [7]
  Growth response: 5%
Heliothis zea
  Utilization by H. zea / support of larval growth and development (words): inhibit insect growth
Heliothis zea; listed as cycloartenol
  Utilization by H. zea / support of larval growth and development (words): could not be met satisfactorily
SMT
  Substrate preference of P. wickerhamii SMT: preferred substrate
Arabidopsis SMT
  Transformation by recombinant Arabidopsis SMT: active in transforming both cycloartenol and 24(28)-methylene lophenol to their respective alkyl products

## CC(C)[C@@H](C)/C=C/[C@@H](C)[C@H]1CC[C@H]2C3=CC=C4C[C@@H](O)CC[C@]4(C)[C@H]3CC[C@]12C [Ergosterol]
[4]
  Effect on growth of GL-7: sparking growth
Heliothis zea; Table 11
  Sterol composition (as % total sterol): ts: 36%
Heliothis zea; [6]
  Instar reached by day 20: 3
Heliothis zea; [7]
  Growth response: 30%

## CCC(CCC(C)C1CCC2C3CC=C4CC(O)CCC4(C)C3CCC12C)C(C)C (centres unmarked) [Sitosterol, sitosterol]
[3]
  Effect on HMGR activity: neither sitosterol nor 24(28)-methylene cycloartanol at 100 mM affected HMGR activity
[4]
  Effect on growth of GL-7: without affecting the rate of growth of the cells
Heliothis zea; Table 11
  Sterol composition (as % total sterol): ts: 20%
Heliothis zea; [6]
  Instar reached by day 20: 6
Heliothis zea; [7]
  Growth response: 100%
Heliothis zea
  Utilization by H. zea / support of larval growth and development (words): supported larval growth to late-sixth instar
[1]
  Ki, second methyl transfer: 100 µM
[1]; [9]
  Ki: 100 µM
[1]; soluble corn SMT
  Effect on the first methyl transfer: without affecting the first methyl transfer

## CC=C(CCC(C)C1CCC2C3=CCC4C(C)C(O)CCC4(C)C3CCC21C)C(C)C (centres unmarked) [Z-24(28)-Ethylidene lophenol]
[1]; [9]
  Ki: 75 µM
[1]; soluble corn SMT
  Effect on the first methyl transfer: not affecting the first methyl transfer

## CC(C)=CCC[C@@H](C)[C@H]1CC[C@H]2C3=C(CC[C@]12C)[C@@]1(C)CC[C@H](O)C[C@@H]1CC3 [Zymosterol]
[2]; [8]
  Enzyme Activity: 5,252 dpm/min
[2]; (C1), first methyl transfer
  % Activity, relative to cycloartenol methylation: 14 (C1) %
[2]; soluble enzyme
  Substrate quality for corn SMT: poor sterol substrate of the first methylation reaction
Yeast SMT enzyme
  Substrate preference / binding to yeast SMT (words): preferred sterol substrate of yeast SMT enzyme
Yeast SMT enzyme; listed as zymosterol
  Substrate preference / binding to yeast SMT (words): preferred substrate of the yeast SMT
